Data reported in publication PMC5218480 (PLoS ONE, 2017).

Test system: MV-4-11 cells
Experiment: Gene expression microarray analysis (Affymetrix PrimeView) and GSEA
Format: cell-based, human
Parameters: RFU PODN (11730768_x_at) / Fold change /veh PODN (11730768_x_at) / RFU LINC00158 (11744669_a_at) / Fold change /veh LINC00158 (11744669_a_at) / RFU DUSP10 (11751237_a_at) / Fold change /veh DUSP10 (11751237_a_at) / RFU ID3 (11757404_x_at) / Fold change /veh ID3 (11757404_x_at) / RFU PLEKHG5 (11737974_s_at) / Fold change /veh PLEKHG5 (11737974_s_at) / RFU LRRC4B (11730491_at) / Fold change /veh LRRC4B (11730491_at) / RFU GIMAP4 (11747438_a_at) / Fold change /veh GIMAP4 (11747438_a_at) / RFU KRT8 (11758183_x_at) / Fold change /veh KRT8 (11758183_x_at) / RFU CNN1 (11734310_a_at) / Fold change /veh CNN1 (11734310_a_at) / RFU VPS37D (11726825_at) / Fold change /veh VPS37D (11726825_at) / RFU C10orf10 (11716522_x_at) / Fold change /veh C10orf10 (11716522_x_at) / RFU KIR2DL2 /// KIR2DL4 /// KIR2DL5A /// KIR2DL5B /// KIR2DS1 /// KIR2DS2 /// KIR2DS3 /// KIR2DS4 /// KIR3DL3 /// KIR3DL3 /// KIR3DS1 (11738374_at) / Fold change /veh KIR2DL2 /// KIR2DL4 /// KIR2DL5A /// KIR2DL5B /// KIR2DS1 /// KIR2DS2 /// KIR2DS3 /// KIR2DS4 /// KIR3DL3 /// KIR3DL3 /// KIR3DS1 (11738374_at) / RFU C1QL1 (11718748_at) / Fold change /veh C1QL1 (11718748_at) / RFU TMPRSS4 (11747572_a_at) / Fold change /veh TMPRSS4 (11747572_a_at) / RFU HAMP (11756126_x_at) / Fold change /veh HAMP (11756126_x_at) / RFU RNFT2 (11725882_a_at) / Fold change /veh RNFT2 (11725882_a_at) / RFU NR4A2 (11747474_a_at) / Fold change /veh NR4A2 (11747474_a_at) / RFU ABCC12 (11746883_a_at) / Fold change /veh ABCC12 (11746883_a_at) / RFU TMEM136 (11760407_x_at) / Fold change /veh TMEM136 (11760407_x_at) / RFU CLDN22 /// WWC2 (11732394_at) / Fold change /veh CLDN22 /// WWC2 (11732394_at) / RFU HLA-DPB1 (11760878_x_at) / Fold change /veh HLA-DPB1 (11760878_x_at) / RFU SPINT1 (11716480_a_at) / Fold change /veh SPINT1 (11716480_a_at) / RFU GAP43 (11754022_s_at) / Fold change /veh GAP43 (11754022_s_at) / RFU A4GNT (11735810_at) / Fold change /veh A4GNT (11735810_at) / RFU PRB3 (11715151_x_at) / Fold change /veh PRB3 (11715151_x_at) / RFU TUBB4B (11761932_at) / Fold change /veh TUBB4B (11761932_at) / RFU CAPN14 (11732068_a_at) / Fold change /veh CAPN14 (11732068_a_at) / RFU TMCC2 (11721928_a_at) / Fold change /veh TMCC2 (11721928_a_at) / RFU IRGQ (11745062_a_at) / Fold change /veh IRGQ (11745062_a_at) / RFU FAM174B (11720279_a_at) / Fold change /veh FAM174B (11720279_a_at) / RFU TMPRSS4 (11748680_a_at) / Fold change /veh TMPRSS4 (11748680_a_at) / RFU FAM212B (11763350_a_at) / Fold change /veh FAM212B (11763350_a_at) / RFU PLEKHG5 (11743358_a_at) / Fold change /veh PLEKHG5 (11743358_a_at) / RFU ZSCAN30 (11745921_a_at) / Fold change /veh ZSCAN30 (11745921_a_at) / RFU CMKLR1 (11741424_a_at) / Fold change /veh CMKLR1 (11741424_a_at) / RFU LOC101060620 /// MAPK8IP1 (11723275_at) / Fold change /veh LOC101060620 /// MAPK8IP1 (11723275_at) / RFU SPTSSB (11747773_x_at) / Fold change /veh SPTSSB (11747773_x_at) / RFU PRSS12 (11739890_at) / Fold change /veh PRSS12 (11739890_at) / RFU BIN1 (11741810_x_at) / Fold change /veh BIN1 (11741810_x_at) / RFU WNT11 (11732464_a_at) / Fold change /veh WNT11 (11732464_a_at) / RFU C10orf10 (11716521_a_at) / Fold change /veh C10orf10 (11716521_a_at) / RFU C5orf56 (11738089_at) / Fold change /veh C5orf56 (11738089_at) / RFU CYB561 (11721691_x_at) / Fold change /veh CYB561 (11721691_x_at) / RFU ANKRD19P (11752326_a_at) / Fold change /veh ANKRD19P (11752326_a_at) / RFU OR2T12 /// OR2T33 /// OR2T8 (11738714_s_at) / Fold change /veh OR2T12 /// OR2T33 /// OR2T8 (11738714_s_at) / RFU VCAN (11748164_a_at) / Fold change /veh VCAN (11748164_a_at) / RFU JSRP1 (11732532_at) / Fold change /veh JSRP1 (11732532_at) / RFU KRTAP10-11 (11738290_x_at) / Fold change /veh KRTAP10-11 (11738290_x_at) / RFU MYO3A (11730013_a_at) / Fold change /veh MYO3A (11730013_a_at) / RFU EBF3 (11725865_a_at) / Fold change /veh EBF3 (11725865_a_at) / RFU CAMK2N1 (11719241_x_at) / Fold change /veh CAMK2N1 (11719241_x_at) / RFU C5orf56 (11738088_a_at) / Fold change /veh C5orf56 (11738088_a_at) / RFU OLFML3 (11715873_a_at) / Fold change /veh OLFML3 (11715873_a_at) / RFU LOC100653217 /// NTM (11731650_a_at) / Fold change /veh LOC100653217 /// NTM (11731650_a_at) / RFU MAPK11 (11762145_a_at) / Fold change /veh MAPK11 (11762145_a_at) / RFU FIZ1 (11724087_x_at) / Fold change /veh FIZ1 (11724087_x_at) / RFU OASL (11726364_x_at) / Fold change /veh OASL (11726364_x_at) / RFU SOX15 (11748057_x_at) / Fold change /veh SOX15 (11748057_x_at) / RFU CD79A (11719716_a_at) / Fold change /veh CD79A (11719716_a_at) / RFU HIST1H1D (11736915_at) / Fold change /veh HIST1H1D (11736915_at) / RFU CASKIN2 (11723855_a_at) / Fold change /veh CASKIN2 (11723855_a_at) / RFU LOC730098 (11760151_x_at) / Fold change /veh LOC730098 (11760151_x_at) / RFU OR4N2 (11742367_at) / Fold change /veh OR4N2 (11742367_at) / RFU PRRT2 (11749266_a_at) / Fold change /veh PRRT2 (11749266_a_at) / RFU SNX32 (11753110_a_at) / Fold change /veh SNX32 (11753110_a_at) / RFU CDHR5 (11726645_a_at) / Fold change /veh CDHR5 (11726645_a_at) / RFU RCAN1 (11760418_a_at) / Fold change /veh RCAN1 (11760418_a_at) / RFU FAM167A (11723789_a_at) / Fold change /veh FAM167A (11723789_a_at) / RFU FAM26E (11764081_at) / Fold change /veh FAM26E (11764081_at) / RFU ISYNA1 (11749810_s_at) / Fold change /veh ISYNA1 (11749810_s_at) / RFU ACY1 (11761880_at) / Fold change /veh ACY1 (11761880_at) / RFU 11764098_at / Fold change /veh 11764098_at / RFU SAMD14 (11745864_x_at) / Fold change /veh SAMD14 (11745864_x_at) / RFU NPB (11741838_a_at) / Fold change /veh NPB (11741838_a_at) / RFU TMPRSS6 (11731388_a_at) / Fold change /veh TMPRSS6 (11731388_a_at) / RFU KRTAP10-2 (11738614_at) / Fold change /veh KRTAP10-2 (11738614_at) / RFU ARHGAP8 /// PRR5-ARHGAP8 (11727945_x_at) / Fold change /veh ARHGAP8 /// PRR5-ARHGAP8 (11727945_x_at) / RFU KRTAP5-7 /// NADSYN1 (11734609_at) / Fold change /veh KRTAP5-7 /// NADSYN1 (11734609_at) / RFU RASL12 (11751679_a_at) / Fold change /veh RASL12 (11751679_a_at) / RFU CDKN2B (11736163_a_at) / Fold change /veh CDKN2B (11736163_a_at) / RFU PRF1 (11729649_at) / Fold change /veh PRF1 (11729649_at) / RFU, ZNF638 /// ZNF638-IT1 / Fold change vs veh, ZNF638 /// ZNF638-IT1 / RFU, PANK3 / Fold change vs veh, PANK3 / RFU, SH3YL1 / Fold change vs veh, SH3YL1 / RFU, ZEB2 / Fold change vs veh, ZEB2 / RFU, NRIP1 / Fold change vs veh, NRIP1 / RFU, PTTG1IP / Fold change vs veh, PTTG1IP / RFU, CAPN2 / Fold change vs veh, CAPN2 / RFU, MED14 / Fold change vs veh, MED14 / RFU, SNORA58 / Fold change vs veh, SNORA58 / RFU, C1orf63 / Fold change vs veh, C1orf63 / RFU, LRRFIP1 / Fold change vs veh, LRRFIP1 / RFU, NDUFAF7 / Fold change vs veh, NDUFAF7 / RFU, SLC12A2 / Fold change vs veh, SLC12A2 / RFU, IBTK / Fold change vs veh, IBTK / RFU, ESF1 / Fold change vs veh, ESF1 / Fold change vs veh, TMEM50B / RFU, TAOK1 / Fold change vs veh, TAOK1 / RFU, ACBD3 / Fold change vs veh, ACBD3 / RFU, TMA16 / Fold change vs veh, TMA16 / RFU, RWDD3 / Fold change vs veh, RWDD3 / RFU, BCAT1 / Fold change vs veh, BCAT1 / RFU, EDEM3 / Fold change vs veh, EDEM3 / RFU, TMEM33 / Fold change vs veh, TMEM33 / RFU, WDR75 / Fold change vs veh, WDR75 / RFU, AHCTF1 / Fold change vs veh, AHCTF1 / RFU, TFRC / Fold change vs veh, TFRC / RFU, ZDHHC17 / Fold change vs veh, ZDHHC17 / RFU, NOM1 / Fold change vs veh, NOM1 / RFU, ARL8B / Fold change vs veh, ARL8B / RFU, ZBTB11 / Fold change vs veh, ZBTB11 / RFU, TAMM41 / Fold change vs veh, TAMM41 / RFU, KIAA1704 /// LOC100996395 / Fold change vs veh, KIAA1704 /// LOC100996395 / RFU, ING1 / Fold change vs veh, ING1 / RFU, TRMT61B / Fold change vs veh, TRMT61B / RFU, FUBP3 / Fold change vs veh, FUBP3 / RFU, TP53 / Fold change vs veh, TP53 / RFU, TNKS2 / Fold change vs veh, TNKS2 / RFU, ZFP14 / Fold change vs veh, ZFP14 / RFU, ACTR2 / Fold change vs veh, ACTR2 / RFU, PPP3R1 / Fold change vs veh, PPP3R1 / RFU, PIK3R1 / Fold change vs veh, PIK3R1 / RFU, HNRNPA1 / Fold change vs veh, HNRNPA1 / RFU, RNF170 / Fold change vs veh, RNF170 / RFU, ZNF28 / Fold change vs veh, ZNF28 / RFU, RNGTT / Fold change vs veh, RNGTT / RFU, OGT / Fold change vs veh, OGT / RFU, BRD1 / Fold change vs veh, BRD1 / RFU, MARS / Fold change vs veh, MARS / RFU, ZNF655 / Fold change vs veh, ZNF655 / RFU, FAHD1 / Fold change vs veh, FAHD1 / RFU, BDP1 / Fold change vs veh, BDP1 / RFU, LRRCC1 / Fold change vs veh, LRRCC1 / RFU, ARID1A / Fold change vs veh, ARID1A / RFU, ZNF146 / Fold change vs veh, ZNF146 / RFU, ZNF330 / Fold change vs veh, ZNF330 / RFU, GPN3 / Fold change vs veh, GPN3 / RFU, C9orf123 / Fold change vs veh, C9orf123 / RFU, N4BP2L2 / Fold change vs veh, N4BP2L2 / RFU, ARFIP1 / Fold change vs veh, ARFIP1 / RFU, FAM179B / Fold change vs veh, FAM179B / RFU, BCL10 / Fold change vs veh, BCL10 / RFU, UHRF1BP1L / Fold change vs veh, UHRF1BP1L / RFU, BET1 / Fold change vs veh, BET1 / RFU, CNOT2 / Fold change vs veh, CNOT2 / RFU, ZNF268 / Fold change vs veh, ZNF268 / Fold change vs veh, ZNF507 / RFU, DGCR2 / Fold change vs veh, DGCR2 / RFU, WDSUB1 / Fold change vs veh, WDSUB1 / Fold change vs veh, HSP90B1 /// MIR3652 / RFU, ADSS / Fold change vs veh, ADSS / RFU, GK / Fold change vs veh, GK / RFU, ZNF148 / Fold change vs veh, ZNF148 / RFU, TAF9 / Fold change vs veh, TAF9 / RFU, SLC1A5 / Fold change vs veh, SLC1A5 / RFU, SLMO2 / Fold change vs veh, SLMO2 / RFU, ABCC4 / Fold change vs veh, ABCC4 / RFU, LOC101060439 /// RAP1B / Fold change vs veh, LOC101060439 /// RAP1B / RFU, RFX7 / Fold change vs veh, RFX7 / RFU, GTPBP10 / Fold change vs veh, GTPBP10 / RFU, CNEP1R1 / Fold change vs veh, CNEP1R1 / RFU, BIVM-ERCC5 /// ERCC5 / Fold change vs veh, BIVM-ERCC5 /// ERCC5 / RFU, ILF3 / Fold change vs veh, ILF3 / RFU 11762660_at / Fold change /veh 11762660_at / RFU VCAN (11757783_s_at) / Fold change /veh VCAN (11757783_s_at) / RFU DDX43 (11728927_at) / Fold change /veh DDX43 (11728927_at) / RFU KRT8 (11758188_x_at) / Fold change /veh KRT8 (11758188_x_at) / RFU NKD1 (11759106_at) / Fold change /veh NKD1 (11759106_at) / RFU SRD5A1 (11742802_a_at) / Fold change /veh SRD5A1 (11742802_a_at) / RFU TPSAB1 /// TPSB2 (11721975_s_at) / Fold change /veh TPSAB1 /// TPSB2 (11721975_s_at) / RFU GSTM3 (11746129_a_at) / Fold change /veh GSTM3 (11746129_a_at) / RFU IL23R (11737362_x_at) / Fold change /veh IL23R (11737362_x_at) / RFU TMEM51 (11727254_a_at) / Fold change /veh TMEM51 (11727254_a_at) / RFU PIWIL2 (11732686_x_at) / Fold change /veh PIWIL2 (11732686_x_at) / RFU ORM1 (11744905_x_at) / Fold change /veh ORM1 (11744905_x_at) / RFU CCDC152 (11743942_at) / Fold change /veh CCDC152 (11743942_at) / RFU ECM1 (11717891_a_at) / Fold change /veh ECM1 (11717891_a_at) / RFU IL23R (11748794_a_at) / Fold change /veh IL23R (11748794_a_at) / RFU TNFAIP8L3 (11732012_x_at) / Fold change /veh TNFAIP8L3 (11732012_x_at) / RFU MBOAT4 (11741988_at) / Fold change /veh MBOAT4 (11741988_at) / RFU 11764193_at / Fold change /veh 11764193_at / RFU TMEM53 (11763286_at) / Fold change /veh TMEM53 (11763286_at) / RFU MAGEB2 (11727129_at) / Fold change /veh MAGEB2 (11727129_at) / RFU TMEM200A (11744735_a_at) / Fold change /veh TMEM200A (11744735_a_at) / RFU CCDC152 (11751479_a_at) / Fold change /veh CCDC152 (11751479_a_at) / RFU FAM211A (11726209_a_at) / Fold change /veh FAM211A (11726209_a_at) / RFU RGS16 (11746705_a_at) / Fold change /veh RGS16 (11746705_a_at) / RFU VCAN (11755009_s_at) / Fold change /veh VCAN (11755009_s_at) / RFU RHOB (11743442_s_at) / Fold change /veh RHOB (11743442_s_at) / RFU RGS16 (11720943_a_at) / Fold change /veh RGS16 (11720943_a_at) / RFU RGS16 (11720944_at) / Fold change /veh RGS16 (11720944_at) / RFU, VPS4B / Fold change vs veh, VPS4B / RFU, CREB1 / Fold change vs veh, CREB1 / RFU, DNAJC13 / Fold change vs veh, DNAJC13 / RFU, GNAQ / Fold change vs veh, GNAQ / RFU, CDK5R1 / Fold change vs veh, CDK5R1 / RFU, ZRANB3 / Fold change vs veh, ZRANB3 / RFU, CUL4A / Fold change vs veh, CUL4A / RFU, CCNY / Fold change vs veh, CCNY / RFU, UFL1 / Fold change vs veh, UFL1 / RFU, COG3 / Fold change vs veh, COG3 / RFU, DIAPH2 / Fold change vs veh, DIAPH2 / RFU, SKA2 / Fold change vs veh, SKA2 / RFU, AFF3 / Fold change vs veh, AFF3 / RFU, LMF1 / Fold change vs veh, LMF1 / RFU, IPO11 / Fold change vs veh, IPO11 / RFU, DFFB / Fold change vs veh, DFFB / RFU, FOXP1 / Fold change vs veh, FOXP1 / RFU, CARD8 / Fold change vs veh, CARD8 / RFU, STRN3 / Fold change vs veh, STRN3 / RFU, ADK / Fold change vs veh, ADK / RFU, RASSF2 / Fold change vs veh, RASSF2 / RFU, WIPF1 / Fold change vs veh, WIPF1 / RFU, LARP1B / Fold change vs veh, LARP1B / RFU, RASA1 / Fold change vs veh, RASA1 / RFU, RB1 / Fold change vs veh, RB1 / RFU, PPFIA1 / Fold change vs veh, PPFIA1 / RFU, MAT2A / Fold change vs veh, MAT2A / RFU, CCT5 / Fold change vs veh, CCT5 / RFU, WDR92 / Fold change vs veh, WDR92 / RFU, CUX1 / Fold change vs veh, CUX1 / RFU, TTC7A / Fold change vs veh, TTC7A / RFU, TMEM135 / Fold change vs veh, TMEM135 / RFU, DEPTOR / Fold change vs veh, DEPTOR / RFU, CPM / Fold change vs veh, CPM / RFU, DNAJB6 / Fold change vs veh, DNAJB6 / RFU, CACNA2D3 / Fold change vs veh, CACNA2D3 / RFU, DTX4 / Fold change vs veh, DTX4 / RFU, TFCP2 / Fold change vs veh, TFCP2 / RFU, GMCL1 /// GMCL1P1 / Fold change vs veh, GMCL1 /// GMCL1P1 / RFU, AEBP2 / Fold change vs veh, AEBP2 / RFU, SNHG1 /// SNORD22 /// SNORD25 /// SNORD26 /// SNORD27 /// SNORD28 /// SNORD29 /// SNORD31 / Fold change vs veh, SNHG1 /// SNORD22 /// SNORD25 /// SNORD26 /// SNORD27 /// SNORD28 /// SNORD29 /// SNORD31 / Fold change (Aza/veh), C12orf56 (ProbeSet 11735607_a_at) / Fold change (ACY-1035/veh), C12orf56 (ProbeSet 11735607_a_at) / Fold change (Aza/veh), FGFR1OP (ProbeSet 11751329_s_at) / Fold change (ACY-1035/veh), FGFR1OP (ProbeSet 11751329_s_at) / Fold change (Aza/veh), VPS36 (ProbeSet 11739960_a_at) / Fold change (ACY-1035/veh), VPS36 (ProbeSet 11739960_a_at) / RFU SYPL1 (11715823_x_at) / Fold change /veh SYPL1 (11715823_x_at) / RFU IGFBP7 (11715501_s_at) / Fold change /veh IGFBP7 (11715501_s_at) / RFU REEP3 (11722064_at) / Fold change /veh REEP3 (11722064_at) / RFU IGLL1 (11728026_x_at) / Fold change /veh IGLL1 (11728026_x_at): dose or concentration left out as unconfirmed
Details: ProbeSet 11727827_x_at; LIST B

Nc1ccc(-c2cccs2)cc1NC(=O)c1ccc2c(c1)cc(C1CC1)n2CCN1CCOCC1 [ACY-1035]
Fold change vs veh, NDUFAF7: 1.01
